Measurements taken from patent EP3046573B1, “AMYLIN ANALOGUES” (Zealand Pharma A/S, priority 2013, dated 2015).
Numbered stars: 1 amine (or outer) side, 2 acyl side, 3 side chain; on linkers, the order of the positions; unused ones are H or OH. Bridge positions count the residues as written; N and C are the ends. Square brackets hold non-standard residues; d marks the D form. Peptide text beside a SMILES is read from it. * marks the point of attachment. C20 diacid = O=C(O)CCCCCCCCCCCCCCCCCCC(=O)*; γGlu = O=C(O)[C@H](CCC(=O)[*:2])N[*:1]; NMeI = CC[C@H](C)[C@H](NC)C(=O)O; Sar = CNCC(=O)O

Legend:
[1] = biological target: T1, human calcitonin receptor (hCTR2) (Homo sapiens, UniProt P30988); assay: hCTR2 assay: induction of cAMP (AlphaScreen cAMP Assay kit) in COS7 cells expressing hCTR2; format: cell-based; details: cAMP induction in COS7 cells expressing hCTR2; average of a minimum of 3 determinations; read-out: hCTR2 EC50
T1 construct: expressed in transfected cells
T1 sequence (P30988 25-474): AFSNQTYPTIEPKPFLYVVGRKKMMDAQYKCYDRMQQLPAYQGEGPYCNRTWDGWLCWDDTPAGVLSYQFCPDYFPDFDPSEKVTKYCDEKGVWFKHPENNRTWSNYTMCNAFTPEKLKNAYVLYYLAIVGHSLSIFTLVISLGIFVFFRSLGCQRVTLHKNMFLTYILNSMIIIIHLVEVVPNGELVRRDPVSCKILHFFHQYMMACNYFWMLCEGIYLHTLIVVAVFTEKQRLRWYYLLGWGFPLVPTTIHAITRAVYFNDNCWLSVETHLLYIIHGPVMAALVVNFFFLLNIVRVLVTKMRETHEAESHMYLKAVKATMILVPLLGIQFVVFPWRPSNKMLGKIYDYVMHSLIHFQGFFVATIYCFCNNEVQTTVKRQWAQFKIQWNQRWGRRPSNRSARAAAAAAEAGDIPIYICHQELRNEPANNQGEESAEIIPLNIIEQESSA
Summary of the method: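 Stable RAMP-naive COS7 clone expressing hCTR2 was stimulated with increasing peptide concentrations in Tyrode buffer (pH 7.4) with 100 µM IBMX and 0.1% casein for 15 min at 37° C. Cells were lysed and cAMP measured by AlphaScreen. EC50 and efficacy relative to pramlintide came from 4PL curve fits.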

[2] = Solubility assessment (turbidity absorbance at 325 nm); format: physicochemical; details: stock 2 mg/ml diluted 1:1, ambient temperature (typically 25°C), n=1; for Solubility, Acetate buffer pH 4: 100 mM acetate buffer pH 4.0; for Solubility, Acetate buffer pH 5: 100 mM acetate buffer pH 5.0; for Solubility, Histidine buffer pH 6: 100 mM histidine buffer pH 6.0; for Solubility, Histidine buffer pH 7: 100 mM histidine buffer pH 7.0; for Solubility, Phosphate buffer pH 6: 100 mM phosphate buffer pH 6.0; for Solubility, Phosphate buffer pH 7: 100 mM phosphate buffer pH 7.0; for Solubility, Phosphate buffer pH 7.5: 100 mM phosphate buffer pH7.5
Summary of the method: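 Stock 2 mg/ml peptide, H2O/HCl pH 2.5; 1:1 into 100 mM buffers: acetate pH 4.0/5.0, His pH 6.0/7.0, phosphate pH 6.0/7.0/7.5. A280 + A325, ~25°C, n=1. Soluble ≥ 1 mg/ml if A325 ≤ 0.02.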

[3] = biological target: T2, human amylin receptor 3 (hAMYR3) consisting of hCTR2 co-expressed with human Receptor Activity Modifying Protein 3 (hRAMP3) (Homo sapiens, UniProt O60896+P30988); assay: hAMYR3 assay: induction of cAMP (AlphaScreen cAMP Assay kit) in COS7 cells expressing hAMYR3; format: cell-based; details: cAMP induction in COS7 cells expressing hAMYR3; average of a minimum of 3 determinations; read-out: hAMY R3 EC50
T2 construct: expressed in transfected cells
T2 sequence (P30988 25-474): T1 sequence (P30988 25-474)
T2 sequence (O60896 24-148 partner): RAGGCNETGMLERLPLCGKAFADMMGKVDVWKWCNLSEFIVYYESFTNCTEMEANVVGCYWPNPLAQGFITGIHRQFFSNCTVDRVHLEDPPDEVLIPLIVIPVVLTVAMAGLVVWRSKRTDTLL
Summary of the method: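 Stable COS7 clone co-expressing hCTR2 and hRAMP3, stimulated 15 min at 37° C with increasing peptide in Tyrode buffer pH 7.4 with 100 µM IBMX and 0.1% casein. cAMP measured by AlphaScreen after lysis; EC50 and % efficacy versus pramlintide from 4PL fit.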

EC50 [1] [nM] | Solubility, Acetate buffer pH 4 [2] | Solubility, Acetate buffer pH 5 [2] | Solubility, Histidine buffer pH 6 [2] | Solubility, Histidine buffer pH 7 [2] | Solubility, Phosphate buffer pH 6 [2] | Solubility, Phosphate buffer pH 7 [2] | Solubility, Phosphate buffer pH 7.5 [2] | EC50 [3] [nM] | SMILES
0.15 | SS (SS indicates solubility ≥ 1mg/ml) | SS (SS indicates solubility ≥ 1mg/ml) | SS (SS indicates solubility ≥ 1mg/ml) | SS (SS indicates solubility ≥ 1mg/ml) | SS (SS indicates solubility ≥ 1mg/ml) | SS (SS indicates solubility ≥ 1mg/ml) | SS (SS indicates solubility ≥ 1mg/ml) | 0.35 | CC[C@H](C)[C@@H](C(=O)N[C@@H](CC(C)C)C(=O)N[C@@H](CO)C(=O)N[C@@H](CO)C(=O)N[C@H](C(=O)N[C@@H](CCC(=O)O)C(=O)N[C@H](C(=O)NCC(=O)N[C@@H](CO)C(=O)N[C@@H](CCC(=O)O)C(=O)N[C@H](C(=O)N1CCC[C@H]1C(N)=O)[C@@H](C)O)C(C)C)[C@@H](C)O)N(C)C(=O)[C@H](C)NC(=O)CN(C)C(=O)[C@H](Cc1ccccc1)NC(=O)[C@H](CO)NC(=O)[C@H](CO)NC(=O)[C@H](CO)NC(=O)[C@H](CO)NC(=O)[C@H](CCCNC(=N)N)NC(=O)[C@H](Cc1c[nH]cn1)NC(=O)[C@H](CC(C)C)NC(=O)[C@H](Cc1ccccc1)NC(=O)[C@H](CCC(=O)O)NC(=O)[C@H](C)NC(=O)[C@H](CC(C)C)NC(=O)[C@H](CCCNC(=N)N)NC(=O)[C@H](CO)NC(=O)[C@@H](NC(=O)[C@H](C)NC(=O)[C@@H]1CSSC[C@H](NC(=O)[C@H](CCCNC(=N)N)NC(=O)CC[C@H](NC(=O)CCCCCCCCCCCCCCCCCCC(=O)O)C(=O)O)C(=O)N[C@@H](CCC(=O)O)C(=O)N[C@@H]([C@@H](C)O)C(=O)N[C@@H](C)C(=O)N[C@@H]([C@@H](C)O)C(=O)N1)[C@@H](C)O [Compound 139, [19CD]-isoGlu-RC()ETATC()ATSRLAEFLHRSSSSF-Gly(Me)-A-Ile(Me)-LSSTEVGSETP-NH2] ({C20 diacid-γGlu}-RCETATCATSRLAEFLHRSSSSF[Sar]A[NMeI]LSSTEVGSETP-NH2; disulfide 2-7)
0.11 | SS (SS indicates solubility ≥ 1mg/ml) | SS (SS indicates solubility ≥ 1mg/ml) | SS (SS indicates solubility ≥ 1mg/ml) | SS (SS indicates solubility ≥ 1mg/ml) | SS (SS indicates solubility ≥ 1mg/ml) | SS (SS indicates solubility ≥ 1mg/ml) | SS (SS indicates solubility ≥ 1mg/ml) | 0.13 | CC[C@H](C)[C@@H](C(=O)N[C@@H](CC(C)C)C(=O)N[C@@H](CO)C(=O)N[C@@H](CO)C(=O)N[C@H](C(=O)N[C@@H](CCC(=O)O)C(=O)N[C@H](C(=O)NCC(=O)N[C@@H](CO)C(=O)N[C@@H](CCC(=O)O)C(=O)N[C@H](C(=O)N1CCC[C@H]1C(N)=O)[C@@H](C)O)C(C)C)[C@@H](C)O)N(C)C(=O)[C@H](C)NC(=O)CN(C)C(=O)[C@H](Cc1ccccc1)NC(=O)[C@H](CO)NC(=O)[C@H](CO)NC(=O)[C@H](CO)NC(=O)[C@H](CO)NC(=O)[C@H](CCCNC(=N)N)NC(=O)[C@H](Cc1c[nH]cn1)NC(=O)[C@H](CC(C)C)NC(=O)[C@H](Cc1ccccc1)NC(=O)[C@H](CCC(=O)O)NC(=O)[C@H](C)NC(=O)[C@H](CC(C)C)NC(=O)[C@H](CCCNC(=N)N)NC(=O)[C@H](CO)NC(=O)[C@@H](NC(=O)[C@H](C)NC(=O)[C@@H]1CSSC[C@H](NC(=O)[C@H](CCCNC(=N)N)NC(=O)CC[C@H](NC(=O)CCCCCCCCCCCCCCCCCCC(=O)O)C(=O)O)C(=O)NCC(=O)N[C@@H]([C@@H](C)O)C(=O)N[C@@H](C)C(=O)N[C@@H]([C@@H](C)O)C(=O)N1)[C@@H](C)O [Compound 141, [19CD]-isoGlu-RC()GTATC()ATSRLAEFLHRSSSSF-Gly(Me)-A-Ile(Me)-LSSTEVGSETP-NH2] ({C20 diacid-γGlu}-RCGTATCATSRLAEFLHRSSSSF[Sar]A[NMeI]LSSTEVGSETP-NH2; disulfide 2-7)
0.26 | SS (SS indicates solubility ≥ 1mg/ml) | SS (SS indicates solubility ≥ 1mg/ml) | SS (SS indicates solubility ≥ 1mg/ml) | SS (SS indicates solubility ≥ 1mg/ml) | SS (SS indicates solubility ≥ 1mg/ml) | SS (SS indicates solubility ≥ 1mg/ml) | SS (SS indicates solubility ≥ 1mg/ml) | 0.44 | CC[C@H](C)[C@@H](C(=O)N[C@@H](CC(C)C)C(=O)N[C@@H](CO)C(=O)N[C@@H](CO)C(=O)N[C@H](C(=O)N[C@@H](CCC(=O)O)C(=O)N[C@H](C(=O)NCC(=O)N[C@@H](CO)C(=O)N[C@@H](CCC(=O)O)C(=O)N[C@H](C(=O)N1CCC[C@H]1C(N)=O)[C@@H](C)O)C(C)C)[C@@H](C)O)N(C)C(=O)[C@H](C)NC(=O)CN(C)C(=O)[C@H](Cc1ccccc1)NC(=O)[C@H](CO)NC(=O)[C@H](CO)NC(=O)[C@H](CO)NC(=O)[C@H](CO)NC(=O)[C@H](CCCNC(=N)N)NC(=O)[C@H](Cc1c[nH]cn1)NC(=O)[C@H](CC(C)C)NC(=O)[C@H](Cc1ccccc1)NC(=O)[C@H](CCC(=O)O)NC(=O)[C@H](C)NC(=O)[C@H](CC(C)C)NC(=O)[C@H](CCCNC(=N)N)NC(=O)[C@@H]1CCCN1C(=O)[C@@H](NC(=O)[C@H](C)NC(=O)[C@@H]1CSSC[C@H](NC(=O)[C@H](CCCNC(=N)N)NC(=O)CC[C@H](NC(=O)CCCCCCCCCCCCCCCCCCC(=O)O)C(=O)O)C(=O)N2CCC[C@H]2C(=O)N[C@@H]([C@@H](C)O)C(=O)N[C@@H](C)C(=O)N[C@@H]([C@@H](C)O)C(=O)N1)[C@@H](C)O [Compound 143, [19CD]-isoGlu-RC()PTATC()ATPRLAEFLHRSSSSF-Gly(Me)-A-Ile(Me)-LSSTEVGSETP-NH2] ({C20 diacid-γGlu}-RCPTATCATPRLAEFLHRSSSSF[Sar]A[NMeI]LSSTEVGSETP-NH2; disulfide 2-7)
0.11 | SS (SS indicates solubility ≥ 1mg/ml) | SS (SS indicates solubility ≥ 1mg/ml) | SS (SS indicates solubility ≥ 1mg/ml) | SS (SS indicates solubility ≥ 1mg/ml) | SS (SS indicates solubility ≥ 1mg/ml) | SS (SS indicates solubility ≥ 1mg/ml) | SS (SS indicates solubility ≥ 1mg/ml) | 0.24 | CC[C@H](C)[C@@H](C(=O)N[C@@H](CC(C)C)C(=O)N[C@@H](CO)C(=O)N[C@@H](CO)C(=O)N[C@H](C(=O)N[C@@H](CCC(=O)O)C(=O)N[C@H](C(=O)NCC(=O)N[C@@H](CO)C(=O)N[C@@H](CCC(=O)O)C(=O)N[C@H](C(=O)N1CCC[C@H]1C(N)=O)[C@@H](C)O)C(C)C)[C@@H](C)O)N(C)C(=O)[C@H](C)NC(=O)CN(C)C(=O)[C@H](Cc1ccccc1)NC(=O)[C@H](CO)NC(=O)[C@H](CO)NC(=O)[C@H](CO)NC(=O)[C@H](CO)NC(=O)[C@H](CCCNC(=N)N)NC(=O)[C@H](Cc1c[nH]cn1)NC(=O)[C@H](CC(C)C)NC(=O)[C@H](Cc1ccccc1)NC(=O)[C@H](CCC(=O)O)NC(=O)[C@H](C)NC(=O)[C@H](CC(C)C)NC(=O)[C@H](CCCNC(=N)N)NC(=O)[C@H](C)NC(=O)[C@@H](NC(=O)[C@H](C)NC(=O)[C@@H]1CSSC[C@H](NC(=O)[C@H](CCCNC(=N)N)NC(=O)CC[C@H](NC(=O)CCCCCCCCCCCCCCCCCCC(=O)O)C(=O)O)C(=O)N[C@@H](CO)C(=O)N[C@@H]([C@@H](C)O)C(=O)N[C@@H](C)C(=O)N[C@@H]([C@@H](C)O)C(=O)N1)[C@@H](C)O [Compound 144, [19CD]-isoGlu-RC()STATC()ATARLAEFLHRSSSSF-Gly(Me)-A-Ile(Me)-LSSTEVGSETP-NH2] ({C20 diacid-γGlu}-RCSTATCATARLAEFLHRSSSSF[Sar]A[NMeI]LSSTEVGSETP-NH2; disulfide 2-7)
